Data published in patent publication US8846569B2, “Pesticidal bis-organosulfur compounds” (Merial Limited, priority 2009, dated 2014).

Assays:
Type in all cases: in vivo
Plutella xylostella = experiment: Diamond back moth (Plutella xylostella) stomach poison leaf dip test; settings: for activity in [%]: 10 ppm, scale 0% no biological activity to 100% total control
Experimental: The test solution is prepared at the day of use.
Leaves of Chinese cabbage are dipped in test solution and air-dried. Treated leaves are placed in petri dished lined with moist filter paper. Mortality is recorded 24, 72, and 120 hours after treatment.
The biological tests were conducted as described above.

Myzus persicae = experiment: Green peach aphid (Myzus persicae) artificial diet test; settings: 72 h, 2500 ppm, adult aphids on treated artificial diet, 3 days, read-out: mortality in comparison with untreated controls
Text: For evaluating control of green peach aphid (Myzus persicae) the test unit consisted of 96-well-microtiter plates containing liquid artificial diet under an artificial membrane.
The compounds were formulated using a solution containing 75% v/v water and 25% v/v DMSO. Different concentrations of formulated compounds were pipetted into the aphid diet, using a custom built pipetter, at two replications.
After application, 5-8 adult aphids were placed on the artificial membrane inside the microtiter plate wells. The aphids were then allowed to suck on the treated aphid diet and incubated at about 23±1° C. and about 50±5% relative humidity for 3 days. Aphid mortality and fecundity was then visually assessed.

Aedes aegypti = Aedes aegypti neonate larvae motility assay; settings: larval motility, dose response
Experimental: Compounds formulated in 100% DMSO are tested in microtiter plates containing 180 ul 1× Luria Broth media and 10 neonate A. aegypti larvae. The efficacy of a compound is determined based on the motility of the larvae as compared to average motility of control wells containing DMSO only. A dose response assay is conducted with compounds with >80% reduction in motility in the primary assay to determine an EC50 value. Selected compounds are advanced to insecticide secondary assays.

Anthonomus grandis = experiment: Boll weevil (Anthonomus grandis) diet/egg test; settings: 120 h, 2500 ppm, egg and larval mortality, 5 days, read-out: mortality in comparison with untreated controls
Experimental: For evaluating control of boll weevil (Anthonomus grandis) the test unit consisted of 24-well-microtiter plates containing an insect diet and 20-30 A. grandis eggs.
The compounds were formulated using a solution containing 75% v/v water and 25% v/v DMSO. Different concentrations of formulated compounds were sprayed onto the insect diet at 20 μl, using a custom built micro atomizer, at two replications.
After application, microtiter plates were incubated at about 23±1° C. and about 50±5% relative humidity for 5 days. Egg and larval mortality was then visually assessed.

Megoura viciae = experiment: Vetch aphid (Megoura viciae) leaf disk test; settings: foliar, 120 h, 2500 ppm, adult aphids on sprayed broad bean leaf disks, 5 days, read-out: mortality in comparison with untreated controls
Experimental: For evaluating control of vetch aphid (Megoura viciae) through contact or systemic means the test unit consisted of 24-well-microtiter plates containing broad bean leaf disks.
The compounds were formulated using a solution containing 75% v/v water and 25% v/v DMSO. Different concentrations of formulated compounds were sprayed onto the leaf disks at 2.5 μl, using a custom built micro atomizer, at two replications.
After application, the leaf disks were air-dried and 5-8 adult aphids placed on the leaf disks inside the microtiter plate wells. The aphids were then allowed to suck on the treated leaf disks and incubated at about 23±1° C. and about 50±5% relative humidity for 5 days. Aphid mortality and fecundity was then visually assessed.

Ceratitis capitata = experiment: Mediterranean fruitfly (Ceratitis capitata) diet/egg test; settings: 120 h, 2500 ppm, egg and larval mortality, 5 days, read-out: mortality in comparison with untreated controls
Experimental: For evaluating control of Mediterranean fruitfly (Ceratitis capitata) the test unit consisted of microtiter plates containing an insect diet and 50-80 C. capitata eggs.
The compounds were formulated using a solution containing 75% v/v water and 25% v/v DMSO. Different concentrations of formulated compounds were sprayed onto the insect diet at 5 nl, using a custom built micro atomizer, at two replications.
(§1) After application, microtiter plates were incubated at about 28±1° C. and about 80±5% relative humidity for 5 days. Egg and larval mortality was then visually assessed.

Heliothis virescens = experiment: Tobacco budworm (Heliothis virescens) diet/egg test
Experimental: For evaluating control of tobacco budworm (Heliothis virescens) the test unit consisted of 96-well-microtiter plates containing an insect diet and 15-25 H. virescens eggs.
The compounds were formulated using a solution containing 75% v/v water and 25% v/v DMSO. Different concentrations of formulated compounds were sprayed onto the insect diet at 10 μl, using a custom built micro atomizer, at two replications.
as §1
The biological activity shown tables under CB.1 and CB.2 was evaluated on scale range from 0% as showing no biological activity to 100% as having total control. The biological tests were conducted as described above.

| Structure (SMILES) | activity in [%] (Plutella xylostella) | mortality at 2500 ppm (Myzus persicae) | EC50 (Aedes aegypti) | mortality at 2500 ppm (Anthonomus grandis) | mortality at 2500 ppm (Megoura viciae) | mortality at 500 ppm (Plutella xylostella; Plutella xylostella, foliar, 500 ppm, dipped Chinese cabbage leaves, stomach poison, read-out: mortality in comparison with untreated controls) | mortality at 2500 ppm (Ceratitis capitata) | activity in [%] (Heliothis virescens; 800 ppm, scale 0% no biological activity to 100% total control) | mortality at 2500 ppm (Heliothis virescens; Heliothis virescens, 120 h, 2500 ppm, egg and larval mortality, 5 days, read-out: mortality in comparison with untreated controls) |
| --- | --- | --- | --- | --- | --- | --- | --- | --- | --- |
| CC(C#N)(CCC(F)(F)F)S(=O)(=O)CCC(F)(F)C(F)(F)F (stereo not shown) [CE. 2, reference compound] | 0% |  |  |  |  |  |  |  |  |
| N#CC(CCSC(F)(F)F)S(=O)(=O)CCC(F)(F)C(F)(F)F (stereo not shown) [II-1, 2-(3,3,4,4,4-Pentafluoro-butane-1-sulfonyl)-4-trifluoromethylsulfanyl-butyronitrile] |  | > 90% | < 5 µg/mL | > 90% | > 90% | > 90% | > 90% | 100% | > 90% |
| CC(C#N)(CCSC(F)(F)F)S(=O)(=O)CCC(F)(F)C(F)(F)F (stereo not shown) [II-2, 2-Methyl-2-(3,3,4,4,4-pentafluoro-butane-1-sulfonyl)-4-trifluoromethyl-sulfanyl-butyronitrile] | 100% |  |  |  |  |  |  |  |  |
